Molecules are shown by their SMILES.

The target of this experiment is T1, adenylyl cyclase gNC1 (Giardia nucleotidyl cyclase 1).
T1 construct: catalytic domain of gNC1 (construct gNC1-301)
Put plainly: adenylyl cyclase assay on enriched gNC1-301, cAMP by radiobinding protein assay; ATP kinetics. It is filed as biochemical, Giardia intestinalis.

By IC50 is commonly meant the concentration needed to halve the response being measured. `O=C(/C=C/c1ccc(O)c(O)c1)O[C@H](Cc1ccc(O)c(O)c1)C(=O)O` [compound 3, rosmarinic acid]: the IC50 came to 10.1 ± 1.3 µM.

These data come from paper PMC10935199, “Rosmarinic Acid Present in Lepechinia floribunda and Lepechinia meyenii as a Potent Inhibitor of the Adenylyl Cyclase gNC1 from Giardia lamblia” (Plants, 2024).
